Assay results from patent US20080279961A1, “TELOMERE TARGETING AGENTS AS STEM CELLS DIRECTED TREATMENTS” (priority 2007, published 2008).
“Also recorded” adds a separate entry of the source.

Columns and labels:
[1] = test system: telomeres of UXF1138L xenografts; assay: telomere restriction fragment (TRF) length by Southern blot in primary cultures from xenografts; type: in vivo, xenograft
Description: Upon termination of the experiment, which was when tumors reached a volume of 1.5 cm in diameter (day 28), RHPS4 treated tumor tissue and control tumors were excised, minced and digested using a mixture of collagenase (123 U/ml), DNase (375 U/ml), and hyaluronidase (290 U/ml) in RPMI 1640 medium at 37° C. for 3 hrs. All enzymes were purchased from Roche, Indianapolis Ind.). Primary cultures as well as clonogenic growth assays were prepared from the resulting single cell suspensions. Primary cultures were used for analysis of telomere length. In addition, RHPS4 treated tumors (5 mg/kg/d) and control were propagated into new animals for up to three times. The control mouse group was always derived from untreated tumor fragments, but from the same initial passage as were the RHPS4 treated tumors (FIG. 1B).
To measure TRF (Telomere Restriction Fragment)-length, genomic DNA was isolated from 3-7 day primary cultures established from single cell suspensions of control and treated UXF1138L xenograft tissues using the DNeasy Tissue Kit (Qiagen, Hilden, Germany). Southern blotting was performed with the Telo-TAGGG-telomere length kit from Roche (Penzberg, Germany) and analyzed as described before (Burger et al., 2005; Cookson et al., 2005).

UXF1138L cells = assay: metaphase spreads; type: cell-based, human; details: 1 microM, 24 hrs
Description: To prepare metaphase spreads, cells were grown to 70% confluency and treated with 1 μM RHPS4 or PBS (vehicle control) for 24 hours in a T75 tissue culture flask. Supernatants were then replaced with media containing 10 μg/ml Colcemid (Sigma) and incubated for 90-120 minutes at 37° C. Next, cells were trypsinized and centrifuged at 500×g for 5 minutes; 8 ml 60 mmol/l KCl was added to the pellets and the cell suspension incubated for 20 minutes at 37° C. In a pre-fixation step, 2 ml freshly made fixative (methanol/glacial […] 3:1) was added on top of the hypotonic suspension and mixed carefully by turning the tube. After 10 minutes at RT, the mix was centrifuged at 600×g for 10 min. and the supernatant removed. For fixation, 10 ml fixative were added and the mix is kept at RT for 10 min. and centrifuged as above, the step was repeated 2 more times. Then, 0.5 ml fresh fixative was added to obtain a milky suspension of cells without clumps. Cleaned slides were placed horizontally at a 45° angle and 100 μl of cell solution dropped onto the slide from a distance of about 20 cm. Slides were dried at RT or directly dehydrated through an ethanol series of 70%, 90% and 100%. After dehydration, slides were rinsed in PBS and incubated with 0.1 μg/ml DAPI (4′, 6-diamidino-2-phenylindole)/PBS for 30 minutes at RT. […]

[2] = tolerability in xenograft studies (body weight, deaths, MTD)
Description: For the first in vivo experiment, tumor fragments (5×5 mm) from untreated donor animals were implanted subcutaneously into both flanks of recipient mice. Treatment was initiated 6 days after transplantation (=day 0, median tumor volume of ˜70 mm^3). Animals were randomized into groups following Lindner's randomization tables and treated by oral gavage with 5 mg/kg/d RHPS4 or vehicle (phosphate buffered saline) respectively (n=5-8 animals per group). […] Drug administration was repeated twice weekly for 8 times (Q3dx8) after randomization. Tumor growth was followed twice weekly by serial caliper measurement, body weights were recorded, and tumor volumes were calculated using the standard formula (length×width^2)/2, where length is the largest dimension and width the smallest dimension perpendicular to the length (Alley et al., 2004; Geran et al., 1972). The median relative tumor volume was plotted against time. Relative tumor volumes were calculated for each single tumor by dividing the tumor volume on day X by that on day 0 (time of randomization). Growth curves were analyzed in terms of tumor inhibition (treated/control, T/C, calculated as median tumor weight of treated divided by median tumor weight of control animals times 100). Statistical data analysis was done using non-parametrical Wilcoxon Mann-Whitney statistics. Median relative tumor volumes of each treatment group were compared with those of the vehicle control groups. P values less than 0.05 were considered statistically significant. SPSS 2000, SYSTAT version 10 software was used.
To conduct combination treatment with Paclitaxel, after 4 serial propagations of RHPS4 treated tumor tissue in nude mice (FIG. 1), RHPS4 was combined with Paclitaxel. Single agent Paclitaxel was given at 20 mg/kg i.v. on days 1 and 15. In combination with RHPS4 (given at 5 mg/kg p.o. twice weekly), only a single dose of Paclitaxel (20 mg/kg i.v.) was administered on day 1. Tumor growth parameters and body weight were assessed as described above.

HEK293T = assay: cytokine secretion into clonogenic assay supernatant (ELISA); type: cell-based, human; details: HEK293T normal stem cell culture supernatant
Description: (§1) For the monkey bone marrow and the human cord blood, methylcellulose from StemCell Technologies (Vancouver) was used to grow the stem cells as colonies. […] Cancer tissues are composed of various cell types, tumor cells, stromal fibroblasts, blood vessels, inflammatory cells, and adipocytes, all of which can carry over into single cell suspensions that are seeded into soft agar after tissue digestion. To examine whether tumor stem cells secrete cytokines that support their growth of enforce differentiation, the expression of 6 cytokines found in the supernatant of clonogenic assays was evaluated. Ultrasensitive immunoassay procedures based on the ELISA (enzyme linked immuno absorbent assay) technology were employed for the measurement of VEGF, TNF-alpha, GMCSF, GCSF IL4 and IL6. The assays were performed by the Cytokine Laboratory in the VA Hospital at the University of Maryland Baltimore and data provided as optical density readouts that were converted relative to a standard into pg/ml absolute cytokine values. The IL4 and 6 measurements were all negative; however VEGF, TNF-alpha, GMCSF and GCSF yielded interesting and differential results between tumor and normal stem cells. While cytokine levels decreased after RHPS4 treatment in tumor stem cell assays, they increased in normal stem cell cultures.

MCF-7 = assay: as above; type: cell-based, human; details: MCF-7 tumor stem cell assay supernatant
Description: as §1

SMILES: COS(=O)(=O)[O-].Cc1cc2c3c([n+](C)c4ccc(F)cc4c3c1)-c1cc(F)ccc1N2C [RHPS4, 3,11-difluoro-6,8,13-trimethyl-8H-quino[4,3,2-kl]acridinium methosulfate]
- TRF [kb] ([1]; Passage #1): 5.1 kb
- TRF [kb] ([1]; Passage #2): ~4.7 kb
- TRF [kb] ([1]; Passage #3): ~3.4 kb
- TRF [kb] ([1]; Passage #4): 4.2 kb
- rate of TRF-length shortening ([1]; passage ~28 days): approximately 1 kb per passage
- chromosome morphology in metaphase spreads (UXF1138L cells): marked increase in end-to-end joining; also recorded: ring and dicentric chromosomes
- Deaths [n/n], drug related death per mice per group ([2]; Passage #1): 0/5
- Deaths [n/n], drug related death per mice per group ([2]; Passage #2): 0/6
- Deaths [n/n], drug related death per mice per group ([2]; Passage #3): 0/8
- Deaths [n/n], drug related death per mice per group ([2]; Passage #4): 0/5
- tolerability ([2]; mouse, in vivo): well tolerated
- 1/2 maximal tolerated dose ([2]; oral, mouse strain used): 5 mg/kg/day
- secretion of stem cell associated cytokines (HEK293T): increased; also recorded: induction in cytokine secretion, particularly VEGF
- secretion of stem cell associated cytokines (MCF-7): decreased; also recorded: inhibition of tumor necrosis factor alpha, VEGF, GMCSF and GCSF
